The values that follow come from PMC4747340, “A new class of small molecule estrogen receptor-alpha antagonists that overcome anti-estrogen resistance” (Oncotarget, 2015).

Where a name gives a salt, the structure may show the parent alone. Read-outs that look alike come from different tables or passages of the source.

In data set [1] the target is T1, estrogen receptor-alpha (ER) (Homo sapiens, UniProt P03372).
T1 sequence (P03372 1-595): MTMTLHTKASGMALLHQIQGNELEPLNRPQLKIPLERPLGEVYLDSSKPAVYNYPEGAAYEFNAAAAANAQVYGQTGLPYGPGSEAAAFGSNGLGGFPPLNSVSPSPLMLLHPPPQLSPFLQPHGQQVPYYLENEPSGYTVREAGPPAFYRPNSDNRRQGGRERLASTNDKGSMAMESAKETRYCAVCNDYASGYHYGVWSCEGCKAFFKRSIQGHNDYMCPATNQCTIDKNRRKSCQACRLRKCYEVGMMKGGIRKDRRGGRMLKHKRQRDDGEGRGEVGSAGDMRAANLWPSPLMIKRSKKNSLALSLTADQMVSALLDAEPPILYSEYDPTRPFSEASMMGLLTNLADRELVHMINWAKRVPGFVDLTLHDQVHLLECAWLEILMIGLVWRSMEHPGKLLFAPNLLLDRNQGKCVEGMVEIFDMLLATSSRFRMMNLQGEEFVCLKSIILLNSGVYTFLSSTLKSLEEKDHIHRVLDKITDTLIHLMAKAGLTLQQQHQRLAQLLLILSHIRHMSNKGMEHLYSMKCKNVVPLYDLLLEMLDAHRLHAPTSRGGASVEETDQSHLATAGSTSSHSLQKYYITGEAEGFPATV
Nature of the data set: constitutive ER activity, ERE-TK-Luc reporter, in anti-estrogen resistant LCC9 cells. The class given is cell-based. The arrangement: LCC9 cells in 24-well dishes were transfected overnight with the ERE-TK-Luc reporter plasmid; endogenous in cells; host or cells: LCC9. Conditions: LCC9, no E2, 24 hr; read-out: IC50 for inhibition of ER activity in LCC9. As for the experimental part:
(§1) For MCF-7, luciferase activity is expressed as a fold-change relative to the no E2 control. For LCC9, luciferase activity is expressed relative to the control without the reporter present. Values plotted are means ± SEMs of four replicate wells. The data shown in each panel are representative of three independent experiments.
The cells were then treated with the indicated concentrations of the six bioactive compounds or vehicle only (DMSO) for 24-hr and assayed for luciferase activity. Luciferase activity is expressed as a percentage of the DMSO control. Values are means ± SEMs of four replicate wells. The data shown in each panel are representative of three independent experiments.
The cells were then harvested for luciferase assays. Luciferase activity was expressed as a fold-change relative to the no reporter control. Values plotted are means ± SEMs of four replicate wells. The data shown are representative of three independent experiments.
(§2) Subconfluent cells in 24-well dishes were transfected overnight with 0.25 μg of each indicated vector plus the ERE-TK-Luc reporter in serum-free DMEM containing Lipofectamine2000 (Life Technologies, Washington, DC). Total transfected DNA was kept constant by addition of control vector. The cells were washed, incubated in phenol red-free DMEM containing 5% charcoal-stripped serum (obtained from the Tissue Culture Shared Resource) (0.2 ml/well) ± E2 (10 nM) ± the indicated compound for 24-hr, and harvested for luciferase assays. For each assay condition was tested in quadrupicate. To monitor the transfection efficiency, cultures were co-transfected with plasmid pRSV-β-gal (Promega, Madison, WI) to visualize transfected cells by X-gal staining.

In data set [2] the target is T1, estrogen receptor-alpha (ER). Briefly: ER activity, ERE-TK-Luc reporter, in MCF-7 cells. The class given is cell-based. The arrangement: MCF-7 cells in 24-well dishes were transfected overnight with the ERE-TK-Luc reporter plasmid; endogenous in cells; host or cells: MCF-7. Conditions: for IC50: read-out: IC50 for inhibition of E2-stimulated ER activity. As for the experimental part: as §1
The cells were then treated ± 17β-estradiol (E2, 10 nM) and with the indicated compound (@ 1 μM or 20 μM) or vehicle only (DMSO) for 24 hr and assayed for luciferase activity. Luciferase activity is expressed as a fold-change relative to the no E2 control. The data shown are representative of three independent experiments.
as §2

A short description of data set [3]: MTT assay of cell viability. Conditions: human, MCF-7 cells, 24-hr exposure, relative to untreated control. The class given is cell-based. As for the experimental part: Figure 3 Cytotoxicity and specificity of compounds A., B. Subconfluent proliferating cells were incubated with the indicated compound at the indicated concentration for 24-hr and then harvested for MTT dye reduction assays. Cell viability values (relative to untreated control cells) are means ± SEMs of 10 replicate wells. C., D. Subconfuent proliferating T47D cells were transfected overnight with the MMTV-Luc reporter (0.25 μg per well in 24-well dishes), washed, and allowed to recover for several hr in fresh medium. The cells were then treated with a synthetic progestin (R5020, 10 nM) plus the indicated compound at the indicated concentration for 24 hr and then harvested for luciferase assays. Luciferase activity is expressed relative to the MMTV-Luc control (no agents added) (panel A) or as a percentage of the +R5020 positive control (panel B). Values are means ± SEMs of four replicate wells. The data shown in each panel are representative of three independent experiments.
Assays were performed as described before. After the indicated treatment, cells in 96-well dishes were solubilized and assayed for MTT dye reduction. Cell viability was expressed as the amount of dye reduction relative to untreated control cells. and calculated as means ± SEMs for 10 replicate wells.

In another data set the test system is LCC9 cells. Nature of the data set: cell proliferation assay (cell counts days 1, 3, 5), LCC9. The format is cell-based, human. The following applies: DMEM + 5% charcoal-stripped serum, up to 5 days; 4631-P/1 at 1 μM. As to the method: Starting on day 1, cells were refed daily with fresh medium (DMEM plus 5% CSS) containing the indicated agent. In panel F, the cells were refed with medium also containing ER-siRNA or control-siRNA (100 nM) at the indicated times. Wells were counted on days 1, 3, and 5 to determine cell numbers. Values are means ± SEMs of triplicate wells. The data shown in each panel are representative of three independent experiments.
Assays were performed using as the growth medium phenol red-free DMEM containing 5% charcoal-stripped serum. Briefly, proliferating cells were harvested using trypsin, counted, inoculated into 12-well dishes at 1 × 10^4 cells per well on day 0 and allowed to attach and recover for 24 hr. The cells were then treated with the indicated agents for up to five days, with daily refeeding with fresh medium and agents. Triplicate wells were counted by Coulter Counter on days 1, 3, and 5. For experiments using siRNAs, cells were treated with the indicated siRNA (100 nM) starting on day -2, and fresh siRNA was added on days 0, 2, and 4.

Data set [4] can be described thus: body weight and signs of acute toxicity in tumor-bearing Balb/c nude mice. The format is in vivo. Conditions: 5, 10 or 20 mg/kg intraperitoneally every other day, 21-day study interval. As for the experimental part:
For these studies we used LCC9 cells grown as subcutaneous tumors in Balb/c nude mice. To improve water solubility, the compound tested (NSC 35446) was prepared as the hydrochloride salt, as described in the Methods section. The mice were dosed intraperitoneally with vehicle (control) or NSC 35446 hydrochloride every other day at 5, 10, or 20 mg/kg. Treatments were initiated when the tumors reached 150-200 mm^3. […] For most time points except the earliest, differences in size between the treated and control tumors were significant (P < 0.05, ANOVA, Tukey's multiple comparison test). There appeared to be some delay in tumor growth at the 5 mg/kg dose; but by day 21, the treated tumors were approaching the control tumors in size. The T/C ratios (ie., ratios of the changes in volume of treated tumors to that of control tumors) on day-21 were: 0.77 (5 mg/kg), 0.24 (10 mg/kg), and 0.15 (20 mg/kg).
Athymic Balb/c nude mice were purchased from Charles River. Mice were housed 5 per cage with microisolater tops and provided food (Furina mice chow) and water ad libitum. The light cycle was regulated automatically (12 hours light/dark cycle) and temperature 23±1°C. Animals were allowed to acclimate to this environment for one week prior to usage. […] The tumor size of each mouse was measured by caliper and calculated by the formula: length × width × width/2 and the body weight was recorded.

A further data set deals with LCC9 tumor xenografts. Briefly: LCC9 tumor xenograft growth in Balb/c nude mice. The format is in vivo. As for the experimental part:
Figure 13 Compound NSC 35446 hydrochloride salt inhibits the growth of LCC9 breast cancer xenografts in athymic nude mice Experiments were performed as described in the Methods and Results sections. The effects of the compound administered intraperitoneally every other day at 5 mg/kg A., 10 mg/kg B., and 20 mg/kg C. are shown and compared with that of vehicle only (control, CT). Values of tumor volume are means ± SDs for N=5 mice per group. Athymic Balb/c nude mice were purchased from Charles River. Mice were housed 5 per cage with microisolater tops and provided food (Furina mice chow) and water ad libitum. The light cycle was regulated automatically (12 hours light/dark cycle) and temperature 23±1°C. Animals were allowed to acclimate to this environment for one week prior to usage. The Georgetown University Animal Care and Use Committee approved all animal studies in accordance with NIH guidelines. The stock solution of NSC 35446 hydrochloride was dissolved in DMSO at 200 mg/ml. The working solution was prepared using 10% Kolliphor ELP (Sigma-Aldrich), 3% PEG400 (Hampton Research, HR2-603); and 87% PBS to give a 1 mg/ml solution. Female Balb/c nude mice (18-22g) were injected with LCC9 cells (3 × 10^6 cells in a volume of 0.3 ml) in the subcutaneous tissue of the right axillary region. The mice were randomly sorted into groups with N=5 mice per group; and treatments were initiated when the tumors reached 150-200 mm^3. The tumor-bearing mice were given intraperitoneal injections of vehicle only (control), 5 mg/kg, 10 mg/kg, or 20 mg/kg of NSC 35446 hydrochloride every other day. The tumor size of each mouse was measured by caliper and calculated by the formula: length × width × width/2 and the body weight was recorded.

Setting [5] is: MCF7, MCF-7, E2 10 nM, compound 1 μM, 24 hr, read-out: inhibition of E2-stimulated ER activity at 1 μM.

Usually IC50 stands for the concentration that gives 50% inhibition. As usually defined, the inhibition is the relative decrease from the control value, in per cent. In general, viability refers to a read-out of living cells in per cent, often relative to untreated cells. Read a high viability as better survival. Consider `CC(C)=CC1C(COC(=O)c2cc3c(cc2Cl)OCO3)C1(C)C` (centres unmarked) [48693-K/1], for which the concentration for half-maximal inhibition (IC50) in data set [1] is 4000 nM. For the same molecule, the inhibition at 1 µM in data set [2] (MCF7, read-out: inhibition of E2-stimulated ER activity at 1 μM) is at least 50%. For the same molecule, the 50% inhibitory concentration (IC50) in data set [2] (MCF-7, E2 10 nM, 24 hr) was at most 1000 nM. Further, in data set [3], the viability at 24 h, 1 µM was 100% and the viability at 24 h, 20 µM is above 90%.

Consider `Sc1ccc2ccccc2c1CNCc1ccccc1` [81747-N/1], for which, in data set [1], the concentration for half-maximal inhibition (IC50) was 30000 nM. Also, the inhibition at 1 µM in data set [2] (setting [5]) was at least 50%. In addition, the IC50 in data set [2] (MCF-7, E2 10 nM, 24 hr) is at most 1000 nM. Also, in data set [3], the viability at 24 h, 1 µM stood at 100% and the viability at 24 h, 20 µM is above 90%.

In the case of `c1ccc2c(c1)-c1ccccc1C2N1CC2CCC(CC2)C1` [88999-U/1], the half-maximal inhibitory concentration (IC50) in data set [1] is at most 1000 nM; in data set [2] (MCF-7, E2 10 nM, 24 hr) it was at most 1000 nM. Besides, the inhibition at 1 µM in data set [2] (setting [5]) is at least 50%.

`OCC(CCc1c[nH]c2ccccc12)c1c[nH]c2ccccc12` (centres unmarked) [372127-T/1]: the IC50 in data set [1] was at most 1000 nM; in data set [2] (MCF-7, E2 10 nM, 24 hr) it was at most 1000 nM. Further, in data set [2] (MCF-7, E2 10 nM, compound 1 μM, 24 hr), the “inhibition of E2-stimulated ER activity at 1 μM” value is reported as at least 50%.

For `C[C@]12CC[C@@H]3c4ccc(O)cc4CC[C@H]3[C@@H]1CC[C@@H]2O` [E2, 17β-estradiol, reference compound], the “effect on LCC9 cell growth, single agent” value in the data set with LCC9 cells is on record as “Neither E2 nor Tam significantly altered growth of LCC9”.

For `O=C(CC(c1ccccc1)N1CCCCC1)c1ccccc1` (centres unmarked) [NSC 35446 hydrochloride, 1,3-diphenyl-3-(piperidin-1-yl)propan-1-one], in data set [4], the “body weight and signs of acute toxicity” value is “No significant changes in body weight or obvious signs of acute toxicity”. Besides, the “T/C ratio (change in volume of treated tumors to control tumors) on day-21” value amounted to 0.77 in the data set with LCC9 tumor xenografts (5 mg/kg intraperitoneally every other day), 0.24 in the data set on LCC9 tumor xenografts (10 mg/kg intraperitoneally every other day) and 0.15 with LCC9 tumor xenografts (20 mg/kg intraperitoneally every other day). For the same molecule, the “effect on LCC9 tumor growth” value with LCC9 tumor xenografts (intraperitoneally every other day, 21-day study) was “efficacious at the 10 mg/kg and 20 mg/kg doses in slowing tumor growth or causing tumor stasis”.

`CC/C(=C(\c1ccccc1)c1ccc(OCCN(C)C)cc1)c1ccccc1` [Tam, Tamoxifen, reference compound]: in the data set on LCC9 cells, the “effect on LCC9 cell growth, single agent” value was “Neither E2 nor Tam significantly altered growth of LCC9”.
